Source: patent EP0178438A1, “Novel compounds” (BEECHAM GROUP PLC, priority 1984, dated 1986)

System: acid secretion
Assay: perfused rat stomach preparation (anti-secretory response, pH of perfusate)
Type: in vivo, male Wistar rats
Conditions: bolus intravenous injection, maximal reduction in hydrogen-ion concentration as percentage of control, carbachol or histamine stimulated, urethane anaesthetized rat; for inhibition in vivo at 1 µmol/kg: Dose 1 μmol/kg; for inhibition in vivo at 2 µmol/kg: Dose 2 μmol/kg; for inhibition in vivo at 2.5 µmol/kg: Dose 2.5 μmol/kg
Method: The modified (1) perfused stomach preparation (2) ofthe urethane (25% solution) anaesthetized rat, maintained at 37 °C, allows the continuous measurement of pH during basal and stimulated acid secretion.
The lumen of the stomach of male Wistar rats (approximately 200 g bodyweight) was perfused, via a cannula designed to reduce the dead space of the stomach, with 5% glucose solution (37°C) at the rate of 3 ml/min. The perusate was forced over the surface of the secretory mucose only, the antrum being excluded. The effluent then passed over a microflow type glass pH electrode via a collecting funnel situated in the non-glandular forestomach.
The secretagogue carbachol or histamine was administered as a constant intravenous infusion to produce a stady rate of acid secretion. Test compounds were administered in solution as bolus intravenous injections and any effect on th pH of the perfusate noted. The perfusate Ph was recorded on a potentiometric recorder and anti-secretory responses were measure in terms of the maximal reduction in hydrogen-ion concentration expressed as a percentage of the 'control' concentrations.

## Cc1cnc(C[S+]([O-])c2nc3ccccc3[nH]2)c(C)c1N(C)C (centres unmarked) [Example 2, 2-[ (4-Dimethylamino-3,5-dimethylpyrid-2-1)methylsulphinyl] benzimidazole]
  inhibition in vivo at 1 µmol/kg: 37%

## Cc1cnc(C[S+]([O-])c2nc3ccccc3[nH]2)c(C)c1N1CCCCC1 (centres unmarked) [Example 6b, 2-[(3,5-dimethyl-4-(piperid-1-yl)pyrid-2-yl)methylsulphinyl]benzimidazole]
  inhibition in vivo at 2 µmol/kg: 50%

## Cc1cnc(C[S+]([O-])c2nc3ccccc3[nH]2)c(C)c1N1CCOCC1 (centres unmarked) [Example 8b, 2-[(3,5-dimethyl-4-morpholino-pyrid-2-yl)methylsulphinyl]benzimidazole]
Dose 0.5 μmol/kg
  inhibition in vivo at 0.5 µmol/kg: 72%

## Cc1cnc(C[S+]([O-])c2nc3cc(Cl)ccc3[nH]2)c(C)c1N(C)C (centres unmarked) [Example 11b, 5-Chloro-2-[(4-dimethylamino-3,5-dimethypyrid-2-yl)-methylsulphinyl]benzimidazole]
  inhibition in vivo at 2 µmol/kg: 37%

## Cc1cnc(C[S+]([O-])c2nc3ccc(Cl)cc3[nH]2)c(C)c1N1CCOCC1 (centres unmarked) [Example 14b, 5-Chloro-2-[(3,5-dimethyl-4-morpholinopyrid-2-yl)-methylsulphinyl]benzimidazole]
  inhibition in vivo at 1 µmol/kg: 60%

## Cc1c(N2CCOCC2)ccnc1C[S+]([O-])c1nc2ccccc2[nH]1 (centres unmarked) [Example 21b, 2-[(3-Methyl-4-morpholino-pyrid-2-yl)methylsulphinyl]-benzimidazole]
  inhibition in vivo at 2 µmol/kg: 87%

## Cc1cnc(C[S+]([O-])c2nc3ccccc3[nH]2)c(C)c1Nc1ccccc1 (centres unmarked) [Example 23b, 2-[(3,5-Dimethyl-4-N-anilino-pyrid-2-yl)methylsulphinyl]benzimidazole]
Dose 5 μmol/kg
  inhibition in vivo at 5 µmol/kg: 86%

## Cc1c(N(C)c2ccccc2)ccnc1C[S+]([O-])c1nc2ccccc2[nH]1 (centres unmarked) [Example 24b]
  inhibition in vivo at 2 µmol/kg: 100%

## Cc1c(C[S+]([O-])c2nc3ccccc3[nH]2)ncnc1N1CCCCC1 (centres unmarked) [Example 25b, 2-[(5-Methyl-4-(1-piperidinyl)-pyrimidin-6-yl)methylsulphinyl]benzimidazole]
  inhibition in vivo at 2 µmol/kg: 84%

## Cc1c(C[S+]([O-])c2nc3ccccc3[nH]2)ncnc1N1CCOCC1 (centres unmarked) [Example 26b, 2-[(5-Methyl-4-morpholino-pyrimidin-6-yl)methylsulphinyl]benzimidazole]
  inhibition in vivo at 2.5 µmol/kg: 84%

## Cc1c(C[S+]([O-])c2nc3ccccc3[nH]2)ncnc1N(C)C (centres unmarked) [Example 27b, 2-[(5-Methyl-4-dimethylamino-pyrimidin-6-yl)methylsulphinyl]benzimidazole]
  inhibition in vivo at 2.5 µmol/kg: 92%
